Values quoted from earlier work, collected in US20090099301A1, “MOLECULAR IMPRINTINGS FOR RECOGNITION IN AQUEOUS MEDIA, METHODS FOR PREPARING SAME AND USES THEREOF” (POLYINTELL, priority 2006, published 2009).

Conditions: basic medium (pH 11)

## CC(C)NCC(O)COc1cccc2ccccc12 (stereo not shown) [propranolol]
  solubility in water: insoluble
